The assay concerns the target T1, RORc ligand binding domain (Homo sapiens, UniProt P51449).
T1 construct: host or cells: E. coli
T1 sequence (P51449 269-508 limits assumed): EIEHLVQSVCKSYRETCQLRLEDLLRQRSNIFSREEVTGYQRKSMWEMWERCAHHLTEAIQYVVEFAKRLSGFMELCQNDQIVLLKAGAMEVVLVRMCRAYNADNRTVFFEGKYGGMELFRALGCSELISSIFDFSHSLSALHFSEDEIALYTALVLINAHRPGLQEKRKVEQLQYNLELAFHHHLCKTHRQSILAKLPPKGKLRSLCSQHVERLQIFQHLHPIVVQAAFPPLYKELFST
Nature of the assay: In vitro RORc ligand binding assay (25-[3H]hydroxycholesterol displacement, filter binding). Particulars: 6 nM 25-[3H]hydroxycholesterol, 0.6 ug/mL RORc receptor, 3 h at 25° C. In a few lines: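 Compounds in 5% DMSO, either dose-response or screened at 1 and 10 uM, competed with 6 nM 25-[3H]hydroxycholesterol for 0.6 ug/mL RORc over 3 h at 25° C (HEPES pH 7.4, NaCl, MgCl2, DTT, BSA buffer). Bound tracer was filter-harvested and counted; nonspecific binding came from 1 uM 25-hydroxycholesterol.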
What is called IC50 is the concentration at which inhibition is half-maximal. Consider `CCNC(=O)N(CC)C[C@@]12CC[C@@H](c3cc(-c4c(F)cccc4F)nnc31)C2(C)C` [Example 288, 1-(((5R,8S)-3-(2,6-difluorophenyl)-9,9-dimethyl-5,6,7,8-tetrahydro-5,8-methanocinnolin-8-yl)methyl)-1,3-diethylurea], for which the IC50 was 21 nM.
As for `CC(=O)N(CCO)C[C@@]12CC[C@@H](c3cc(-c4c(F)cccc4F)nnc31)C2(C)C` [Example 289, N-(((5R,8S)-3-(2,6-difluorophenyl)-9,9-dimethyl-5,6,7,8-tetrahydro-5,8-methanocinnolin-8-yl)methyl)-N-(2-hydroxyethyl)acetamide], the half-maximal inhibitory concentration (IC50) worked out at 258 nM.
`CC(=O)OCCN(C[C@@]12CC[C@@H](c3cc(-c4c(F)cccc4F)nnc31)C2(C)C)C(C)=O` [Example 290, 2-(N-(((5R,8S)-3-(2,6-difluorophenyl)-9,9-dimethyl-5,6,7,8-tetrahydro-5,8-methanocinnolin-8-yl)methyl)acetamido)ethyl acetate] gave a concentration for half-maximal inhibition (IC50) of 121 nM.
The molecule `CC1(C)[C@H]2CC[C@]1(CNCC(F)F)c1nnc(-c3c(F)cccc3F)cc12` [Example 291, N-(((5R,8S)-3-(2,6-difluorophenyl)-9,9-dimethyl-5,6,7,8-tetrahydro-5,8-methanocinnolin-8-yl)methyl)-2,2-difluoroethanamine] had an IC50 of 149 nM.
In turn, `CCOC(=O)N(CC(F)F)C[C@@]12CC[C@@H](c3cc(-c4c(F)cccc4F)nnc31)C2(C)C` [Example 292, ethyl (2,2-difluoroethyl)(((5R,8S)-3-(2,6-difluorophenyl)-9,9-dimethyl-5,6,7,8-tetrahydro-5,8-methanocinnolin-8-yl)methyl)carbamate] gave a concentration for half-maximal inhibition (IC50) of 7 nM.
In the case of `CCNC(=O)N(CC(F)F)C[C@@]12CC[C@@H](c3cc(-c4c(F)cccc4F)nnc31)C2(C)C` [Example 293, 1-(2,2-difluoroethyl)-1-(((5R,8S)-3-(2,6-difluorophenyl)-9,9-dimethyl-5,6,7,8-tetrahydro-5,8-methanocinnolin-8-yl)methyl)-3-ethylurea], the IC50 is 42 nM.
In turn, `C[C@@H]1COC(=O)N1C[C@@]12CC[C@@H](c3cc(-c4c(F)cccc4F)nnc31)C2(C)C` [Example 294, (R)-3-(((5R,8S)-3-(2,6-difluorophenyl)-9,9-dimethyl-5,6,7,8-tetrahydro-5,8-methanocinnolin-8-yl)methyl)-4-methyloxazolidin-2-one] had an IC50 of 103 nM.
The molecule `C[C@H]1COC(=O)N1C[C@@]12CC[C@@H](c3cc(-c4c(F)cccc4F)nnc31)C2(C)C` [Example 295, (S)-3-(((5R,8S)-3-(2,6-difluorophenyl)-9,9-dimethyl-5,6,7,8-tetrahydro-5,8-methanocinnolin-8-yl)methyl)-4-methyloxazolidin-2-one] registered an IC50 of 1110 nM.
The molecule `CCN(C[C@@]12CC[C@@H](c3cc(-c4c(F)cccc4F)nnc31)C2(C)C)c1nnc(CO)o1` [Example 296, (5-((((5R,8S)-3-(2,6-difluorophenyl)-9,9-dimethyl-5,6,7,8-tetrahydro-5,8-methanocinnolin-8-yl)methyl)(ethyl)amino)-1,3,4-oxadiazol-2-yl)methanol] came in with a 50% inhibitory concentration (IC50) of 22 nM.
In the case of `CC1(C)[C@H]2CC[C@]1(CNCCO)c1nnc(-c3c(F)cccc3F)cc12` [Example 297, 2-((((5R,8S)-3-(2,6-difluorophenyl)-9,9-dimethyl-5,6,7,8-tetrahydro-5,8-methanocinnolin-8-yl)methyl)amino)ethanol], the IC50 worked out at 2420 nM.
Consider `CC(=O)NCC(=O)N(CCO)C[C@@]12CC[C@@H](c3cc(-c4c(F)cccc4F)nnc31)C2(C)C` [Example 298, 2-acetamido-N-(((5R,8S)-3-(2,6-difluorophenyl)-9,9-dimethyl-5,6,7,8-tetrahydro-5,8-methanocinnolin-8-yl)methyl)-N-(2-hydroxyethyl)acetamide], for which the IC50 was determined as 705 nM.
The result for `CN(C(=O)OCCO)[C@@]12CC[C@@H](c3cc(-c4c(F)cccc4F)nnc31)C2(C)C` [Example 299, 2-hydroxyethyl ((5R,8R)-3-(2,6-difluorophenyl)-9,9-dimethyl-5,6,7,8-tetrahydro-5,8-methanocinnolin-8-yl)(methyl)carbamate] reads 1480 nM; that for `CC(C)(O)[C@@]12CC[C@@H](c3cc(-c4c(F)cccc4F)nnc31)C2(C)C` [Example 300, 2-((5R,8R)-3-(2,6-difluorophenyl)-9,9-dimethyl-5,6,7,8-tetrahydro-5,8-methanocinnolin-8-yl)propan-2-ol], 28 nM; that for `CCN(C[C@@]12CC[C@@H](c3cc(-c4c(F)cccc4F)nnc31)C2(C)C)c1cccc(=O)[nH]1` [Example 301, 6-((((5R,8S)-3-(2,6-difluorophenyl)-9,9-dimethyl-5,6,7,8-tetrahydro-5,8-methanocinnolin-8-yl)methyl)(ethyl)amino) pyridin-2(1H)-one], 12 nM.
The result for `CCN(C[C@@]12CC[C@@H](c3cc(-c4c(F)cccc4F)nnc31)C2(C)C)c1nccc(=O)[nH]1` [Example 302, 2-((((5R,8S)-3-(2,6-difluorophenyl)-9,9-dimethyl-5,6,7,8-tetrahydro-5,8-methanocinnolin-8-yl)methyl)(ethyl)amino) pyrimidin-4(3H)-one] reads 108 nM; that for `CCN(C[C@@]12CC[C@@H](c3cc(-c4c(F)cccc4F)nnc31)C2(C)C)c1nnc(C(F)(F)F)o1` [Example 303, N-(((5R,8S)-3-(2,6-difluorophenyl)-9,9-dimethyl-5,6,7,8-tetrahydro-5,8-methanocinnolin-8-yl)methyl)-N-ethyl-5-(trifluoromethyl)-1,3,4-oxadiazol-2-amine], 10 nM.
`CCN(CC(N)=O)C[C@@]12CC[C@@H](c3cc(-c4c(F)cccc4F)nnc31)C2(C)C` [Example 304, 2-((((5R,8S)-3-(2,6-difluorophenyl)-9,9-dimethyl-5,6,7,8-tetrahydro-5,8-methanocinnolin-8-yl)methyl)(ethyl)amino) acetamide] returned an IC50 of 56 nM.
As to `CC1(C)[C@H]2CC[C@]1(CN(CC(N)=O)CC(F)F)c1nnc(-c3c(F)cccc3F)cc12` [Example 305, 2-((2,2-difluoroethyl)(((5R,8S)-3-(2,6-difluorophenyl)-9,9-dimethyl-5,6,7,8-tetrahydro-5,8-methanocinnolin-8-yl)methyl)amino) acetamide], the IC50 turned out to be 437 nM.
The result for `CN(CC(N)=O)[C@@]12CC[C@@H](c3cc(-c4c(F)cccc4F)nnc31)C2(C)C` [Example 306, 2-(((5R,8R)-3-(2,6-difluorophenyl)-9,9-dimethyl-5,6,7,8-tetrahydro-5,8-methanocinnolin-8-yl)(methyl)amino) acetamide] reads 920 nM; that for `CC1(C)[C@H]2CC[C@]1(NCC(F)F)c1nnc(-c3c(F)cccc3F)cc12` [Example 307, (5R,8R)-N-(2,2-difluoroethyl)-3-(2,6-difluorophenyl)-9,9-dimethyl-5,6,7,8-tetrahydro-5,8-methanocinnolin-8-amine], 71 nM; that for `CC1(C)[C@H]2CC[C@]1(CN(CC(F)F)C(=O)CO)c1nnc(-c3c(F)cccc3F)cc12` [Example 308, N-(2,2-difluoroethyl)-N-(((5R,8S)-3-(2,6-difluorophenyl)-9,9-dimethyl-5,6,7,8-tetrahydro-5,8-methanocinnolin-8-yl)methyl)-2-hydroxyacetamide], 22 nM.
`CC1(C)[C@H]2CC[C@]1(CNCCC#N)c1nnc(-c3c(F)cccc3F)cc12` [Example 309, 3-((((5R,8S)-3-(2,6-difluorophenyl)-9,9-dimethyl-5,6,7,8-tetrahydro-5,8-methanocinnolin-8-yl)methyl)amino) propanenitrite]: the IC50 stood at 590 nM.
Molecule `CC1(C)[C@H]2CC[C@]1(CN(CCC#N)C(N)=O)c1nnc(-c3c(F)cccc3F)cc12` [Example 310, 1-(2-cyanoethyl)-1-(((5R,8S)-3-(2,6-difluorophenyl)-9,9-dimethyl-5,6,7,8-tetrahydro-5,8-methanocinnolin-8-yl)methyl)urea] showed an IC50 of 363 nM.
The molecule `COCC(=O)N(CCC#N)C[C@@]12CC[C@@H](c3cc(-c4c(F)cccc4F)nnc31)C2(C)C` [Example 311, N-(2-cyanoethyl)-N-(((5R,8S)-3-(2,6-difluorophenyl)-9,9-dimethyl-5,6,7,8-tetrahydro-5,8-methanocinnolin-8-yl)methyl)-2-methoxyacetamide] came in with an IC50 of 176 nM.
For `CCOC(=O)N(CCC#N)C[C@@]12CC[C@@H](c3cc(-c4c(F)cccc4F)nnc31)C2(C)C` [Example 312, ethyl (2-cyanoethyl)(((5R,8S)-3-(2,6-difluorophenyl)-9,9-dimethyl-5,6,7,8-tetrahydro-5,8-methanocinnolin-8-yl)methyl)carbamate], the IC50 is 45 nM.
With `CN(C(=O)CO)[C@@]12CC[C@@H](c3cc(-c4c(F)cccc4F)nnc31)C2(C)C` [Example 313, N-((5R,8R)-3-(2,6-difluorophenyl)-9,9-dimethyl-5,6,7,8-tetrahydro-5,8-methanocinnolin-8-yl)-2-hydroxy-N-methylacetamide], the IC50 turned out to be 393 nM.
Turning to `C[C@@H]1CN(C[C@@]23CC[C@@H](c4cc(-c5c(F)cccc5F)nnc42)C3(C)C)C(=O)O1` [Example 314, (R)-3-(((5R,8S)-3-(2,6-difluorophenyl)-9,9-dimethyl-5,6,7,8-tetrahydro-5,8-methanocinnolin-8-yl)methyl)-5-methyloxazolidin-2-one], the IC50 came to 454 nM. The IC50 values of the last two molecules are within 1.5-fold of each other.

Source of the values: US9981916B2 (Genentech, Inc., priority 2013, dated 2018).
